In PMC11990136, “Prenylation of Flavanones by an Aromatic Prenyltransferase from Fusarium globosum” (Molecules, 2025):

How the values were obtained:
[1] = target: T1, FgPT1 (Fusarium globosum, UniProt A0A8H5XPW9); test: HPLC product formation, Michaelis-Menten fit; type: biochemical; settings: 1 mM DMAPP, 1 mM BaCl2, 100 mM Tris-HCl pH 7.5, 37 °C, apparent
T1 construct: gene FGLOB1_12591; full length, 426 residues, N-terminal His6 tag (pET-28a, synthetic gene), E. coli BL21(DE3), Ni-NTA
Text: HPLC product formation, Michaelis-Menten fit on FgPT1

[2] = target: T1, FgPT1; test: HPLC / LC-MS product detection; type: biochemical; settings: prenyl donor; with flavanone acceptor, metal ion (Ba2+ best), Tris-HCl pH 7.5, 37 °C

T1 sequence (A0A8H5XPW9 entry or part of it): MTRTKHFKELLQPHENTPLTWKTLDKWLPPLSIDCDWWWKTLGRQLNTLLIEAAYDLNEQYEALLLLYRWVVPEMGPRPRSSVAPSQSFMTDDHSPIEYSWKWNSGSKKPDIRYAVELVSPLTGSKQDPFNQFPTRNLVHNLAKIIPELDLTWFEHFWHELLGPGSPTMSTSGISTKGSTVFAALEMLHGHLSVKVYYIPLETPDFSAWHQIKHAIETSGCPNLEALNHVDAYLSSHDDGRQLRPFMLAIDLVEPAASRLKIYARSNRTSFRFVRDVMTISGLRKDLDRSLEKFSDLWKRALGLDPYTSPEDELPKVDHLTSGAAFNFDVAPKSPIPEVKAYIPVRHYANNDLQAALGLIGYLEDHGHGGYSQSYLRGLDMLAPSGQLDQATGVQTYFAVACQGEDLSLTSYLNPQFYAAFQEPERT

SMILES	KM (mM) [1]	also measured
O=C1C[C@@H](c2ccc(O)c(O)c2)Oc2cc(O)cc(O)c21 [compound 3, Eriodictyol]	0.23 ± (0.026) mM	–
O=C1c2c(O)cc(O)cc2OCC1c1ccc(O)cc1 (stereo not shown) [compound 6, Dihydrogenistein]	0.14 ± (0.026) mM	–
O=C1C[C@@H](c2ccc(O)cc2)Oc2cc(O)cc(O)c21 [compound 1, Naringenin]	0.26 ± (0.077) mM	–
CC(C)=CCOP(=O)(O)OP(=O)(O)O [DMAPP]	–	HPLC / LC-MS product detection [2]: using DMAPP as the prenyl donor revealed catalytic activity exclusively toward six flavanones
O=C1C[C@@H](c2ccc(O)cc2)Oc2cc(O)ccc21 [compound 4, Liquiritigenin]	0.93 ± (0.161) mM	–
O=C1CC(c2ccccc2)Oc2cc(O)cc(O)c21 (racemic) [compound 5, Rac-pinocembrin]	–	KM (mM) ([1]; racemic substrate): 0.14 ± (0.037) mM
COc1ccc([C@@H]2CC(=O)c3c(O)cc(O)cc3O2)cc1O [compound 2, Hesperetin]	0.94 ± (0.075) mM	–
